From patent US20070219234A1, “Thienopyridine Derivatives” (priority 2004, published 2007)

Key:
[1] = test system: cells from femurs and tibias of ICR mice; experiment: Osteoclast formation suppression test (TRAP activity); format: cell-based, mouse; details: 20 nM active form vitamin D3; compounds 0.01-0.3 μg/ml; culturing for five days
Method: 18 day-old ICR mice were purchased from Japan SLC, Inc. and used in the following experiments. The mice were sacrificed by cervical dislocation and the right and left femurs and tibias were extracted. After the tissue around the extracted femurs and tibias was removed, they were finely minced with scissors. 10 mL of 15%-FBS-αMEM was added to the minced femurs and tibias and the supernatant was collected after agitation for one minute and filtering with a cell strainer (Becton Dickinson company). A cell suspension containing 500,000 cells/mL was prepared with 15%-FBS-αMEM. The cell suspension was dispensed to the wells of a 96 well microplate (Falcon company) in an amount of 100 μL per well so as to achieve 50,000 cells/well and cultured for 24 hours. Active form vitamin D3 (Sigma company, Cat.No.D1530) was dispensed to the wells in final concentrations of 20 nM. Compounds were dispensed to the wells in final concentrations of 0.01, 0.03, 0.1, 0.3 μg/ml except the following control group. DMSO was dispensed to the wells of the control group in a final concentration of 0.1% (v/v). Tartrate-resistant acid phosphatase (TRAP) activity was measured for each group after culturing for five days.
The measurement of TRAP activity was performed as follows. That is, after the whole medium was removed from each well of the culturing plate, each well was washed twice by dispensing and removing 100 μL of Dulbecco's phosphate buffer (available from GIBCO BRL Cat. No. 14190-144). After retaining with a mixture of acetone-ethanol (1:1) for one minute, the retention liquid was removed and the wells were stained at 37° C. with Leukocyte acid phosphatase kit (Sigma company, Cat. No. 387-A) for 30 minutes. The staining solution was removed, then 100 μL of 10% sodium dodecylsulfate (Wako Pure Chemical Industries, Ltd. Cat. No. 191-07145) was dispensed and the mixture was stirred for five minutes, and then absorbance was measured using a microplate reader (Bio-rad company). TRAP activity decrease rate (%) in the group blended with test compounds was calculated assuming the observed value of the control group of each plate to be 100% and evaluated as the osteoclast formation suppression activity.

female F344 rats [2] = experiment: Effect on bone mineral density (ovariectomy); format: in vivo, rat; details: 10 mg/kg, orally once per day, six days a week, six weeks
Method: 8 week-old female F344 rats were purchased from Charles River Laboratories and used in the following experiment. After ketamine (12.5 mg/ml)/xylazine (2.5 mg/ml) liquid mixture was intraperitoneally injected in an amount of 0.25 ml/100 g for anesthesia, ovariectomy or a sham operation was performed. From the next day of the operation, 0.5% carboxymethyl cellulose sodium salt solution (Wako Pure Chemical Industries, Ltd. Cat. No.039-01335) in which a test compound was suspended was orally administered once per day and six days a week. Six weeks after the administration started, the animals were painlessly killed by removing the whole blood from the aorta abdominalis under ketamine xylazine anesthesia and the right and left femurs were extracted.
After soft tissue was removed from the extracted femurs, the bone density was measured by DXA device DCS-600R (Aloka Co., Ltd.). The bone density was determined for the whole femur as well as three evenly divided parts, i.e., proximal, midshaft and distal end.

ST2 cells = experiment: Osteoblast differentiation test (alkaline phosphatase activity); format: cell-based; details: Mus musculus, ST-2, 96 h; at 0.03 μg/mL; culturing for four days; control group (0.1% DMSO) = 100%; read-out: alkaline phosphatase activity increase rate
Method: ST2 cells (available from Institute of Physical and Chemical Research) which are stroma cells derived from mouse marrow were used. In this test, α-MEM medium (available from GIBCO BRL Cat. No. 10370-021) with which 10% (v/v) inactivated fetal bovine serum (available from Hyclone Company, FBS) and 1% (v/v) Penicillin-Streptomycin, Liquid (available from GIBCO BRL Cat. No. 15140-122) are mixed (hereinbelow abbreviated as 10% -FBS-αMEM) was used. Every culture in this test was conducted in a CO2 incubator (37° C., 95% humidity, 5% CO2).
The cells mentioned above were harvested with 2 mL of 0.25% trypsin solution (available from GIBCO BRL Cat. No. 15050-065) and after they were dispersed by adding 10 mL of 10% -FBS-αMEM, the cells were collected by centrifugal separation (25° C., 800 rpm, 5 minutes). A cell suspension containing 40,000 cells/mL was prepared from the collected cells using 10% -FBS-αMEM.
The cell suspension was dispensed to the wells of a 96 well microplate (Falcon company) in an amount of 100 μL per well so as to achieve 4,000 cells/well and cultured for 24 hours. Compounds were dispensed to the wells in final concentrations of 0.01, 0.03, 0.1, 0.3 μg/ml except the following control group. DMSO was dispensed to the wells of the control group in a final concentration of 0.1% (v/v). Alkaline phosphatase (ALP) activity was measured for each group after culturing for four days.
The measurement of ALP activity was performed as follows. That is, after the whole medium was removed from each well of the culturing plate, each well was washed twice by dispensing and removing 100 μL of Dulbecco's phosphate buffer (available from GIBCO BRL Cat. No. 14190-144). Cell lysing solution containing 10 mM MgCl2 and 2%(v/v) TritonX-100 (Sigma company) was prepared and 50 μL/well of the cell lysing solution was dispensed and the mixture was stirred at room temperature for five minutes. An ALP substrate solution containing 50 mM of diethanolamine (Wako Pure Chemical Industries, Ltd. Cat. No. 099-03112) and 20 mM of […] (Wako Pure Chemical Industries, Ltd. Cat. No. 147-02343) was prepared and 50 μL/well of the ALP substrate solution was dispensed and after allowing to stand at room temperature for 10 minutes, absorbance was measured using a microplate reader (Bio-rad company). Alkaline phosphatase activity increase rate (%) in the group blended with test compounds was calculated assuming the observed value of the control group of each plate to be 100% and evaluated as the osteoblast differentiation promoting activity.

female F344 rats [3] = experiment: Effect on fracture healing; format: in vivo, rat; details: orally once per day, six days a week, 39 days
Method: 12 week-old female F344 rats were purchased from Charles River Laboratories and used in the following experiment. An operation for fracturing bone was performed following a method of Li et al. (J. Bone Miner. Res 1999, 14: 969-979) under ketamine xylazine anesthesia. From the next day of the operation, 0.5% carboxymethyl cellulose sodium salt solution (Wako Pure Chemical Industries, Ltd. Cat. No. 039-01335) in which a test compound was suspended was orally administered once per day and six days a week. 39 days after the administration started, the animals were painlessly killed by removing the whole blood from the aorta abdominalis under ketamine xylazine anesthesia and the femurs were extracted.
After soft tissue was removed from the extracted femurs, they were measured by bone strength measuring apparatus MZ-500D (Maruto Instrument Co., Ltd.). 3-point bending tests were performed and determined by maximum load.

Row | Compound | melting point | osteoclast formation suppression effect (TRAP activity decrease rate) [1] | bone density of femur (DXA) (female F344 rats [2]) | activity at 0.03 µg/mL (ST2 cells) | fracture healing (3-point bending test, maximum load) (female F344 rats [3])
1 | NC(=O)c1sc2nccc(N3CCCN(c4ccccc4)CC3)c2c1N [Example 57, 3-amino-4-(4-phenyl-1,4-diazepan-1-yl)thieno[2,3-b]pyridine-2-carboxamide] | – | excellent osteoclast formation suppression effect | significantly increased the bone density | > 150% | significantly improved fracture healing
2 | NC(=O)c1sc2nccc(N3CCCN(c4nccs4)CC3)c2c1N [Example 97, 3-amino-4-[4-(1,3-thiazol-2-yl)-1,4-diazepan-1-yl]thieno[2,3-b]pyridine-2-carboxamide] | 243 to 245 °C | excellent osteoclast formation suppression effect | – | > 150% | –

Further lines, with some results ahead:

Row | melting point | Compound | osteoclast formation suppression effect (TRAP activity decrease rate) [1] | bone density of femur (DXA) (female F344 rats [2]) | activity at 0.03 µg/mL (ST2 cells) | fracture healing (3-point bending test, maximum load) (female F344 rats [3])
3 | 279 to 282 °C (dec.) | CC(=O)c1ccc(N2CCCN(c3ccnc4sc(C(N)=O)c(N)c34)CC2)cc1 [Example 94, 4-[4-(4-acetylphenyl)-1,4-diazepan-1-yl]-3-aminothieno [2,3-b]pyridine-2-carboxamide] | excellent osteoclast formation suppression effect | – | > 150% | –
4 | 237 to 239 °C | NC(=O)c1sc2nccc(N3CCCN(c4ccccn4)CC3)c2c1N [Example 99, 3-amino-4-(4-pyridin-2-yl-1,4-diazepan-1-yl)thieno[2,3-b]pyridine-2-carboxamide] | excellent osteoclast formation suppression effect | – | > 150% | –
5 | 229 to 230 °C | COCC1CCCN(c2ccnc3sc(C(N)=O)c(N)c23)C1 (stereo not shown) [Example 101, 3-amino-4-[3-(methoxymethyl)piperidin-1-yl]thieno[2,3-b]pyridine-2-carboxamide] | excellent osteoclast formation suppression effect | – | > 150% | –
6 | 205 to 208 °C | Cc1ccc(N2CCCN(c3ccnc4sc(C(N)=O)c(N)c34)CC2)nc1 [Example 106, 3-amino-4-[4-(5-methylpyridin-2-yl)-1,4-diazepan-1-yl]thieno[2,3-b]pyridine-2-carboxamide] | excellent osteoclast formation suppression effect | – | > 150% | –
